Read-outs that look alike come from different tables or passages of the source.
Assays:
Format in all cases: in vivo
Myzus persicae [1] = experiment: Myzus persicae oral test; details: 120 h, application rate 4 ppm, after 5 days, read-out: efficacy
Summary of the method: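 Aphid feeding test: compound dissolved in acetone, diluted with water and mixed with IPL41 insect medium plus sugar, offered through parafilm to a mixed population of green peach aphids. Mortality scored after 5 days as % efficacy (100% = all aphids dead, 0% = none dead).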

Lucilia cuprina = Lucilia cuprina test; details: application rate 100 ppm; L1 larvae; after 2 days
Experimental: (§1) Solvent: Dimethyl sulfoxide
To produce a suitable active compound formulation, 10 mg of active compound are mixed with 0.5 ml of dimethyl sulfoxide, and the concentrate is diluted with water to the desired concentration.
About 20 L1 larvae of the Australian sheep blowfly (Lucilia cuprina) are transferred into a test vessel containing minced horsemeat and the active compound formulation of the desired concentration.
After 2 days, the kill in % is determined. 100% means that all the larvae have been killed; 0% means that no larvae have been killed.

Myzus persicae [2] = experiment: Myzus persicae spray test; details: foliar, 120 h, application rate 100 g/ha, Chinese cabbage leaf discs, after 5 days, read-out: efficacy
Summary of the method: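 Chinese cabbage leaf discs infested with all stages of Myzus persicae were sprayed with compound in acetone/DMF, diluted in water containing 1000 ppm emulsifier. Efficacy in % assessed after 5 days: 100% all aphids killed, 0% none killed.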

Ctenocephalides felis = Ctenocephalides felis oral test; details: 48 h, application rate 100 ppm, in citrated cattle blood, after 2 days, read-out: efficacy (kill in %)
Experimental: Ctenocephalides felis—Oral Test
as §1
To produce a suitable active compound formulation, 10 mg of active compound are mixed with 0.5 ml of dimethyl sulfoxide. Dilution with citrated cattle blood gives the desired concentration.
About 20 unfed adult cat fleas (Ctenocephalides felis) are placed into a chamber which is closed at the top and bottom with gauze. A metal cylinder whose bottom end is closed with parafilm is placed onto the chamber. The cylinder contains the blood/active compound formulation, which can be imbibed by the fleas through the parafilm membrane.
After 2 days, the kill in % is determined. 100% means that all of the fleas have been killed; 0% means that none of the fleas have been killed.

Phaedon cochleariae [3] = experiment: Phaedon cochleariae spray test; details: foliar, 168 h, application rate 100 g/ha, Chinese cabbage leaf discs, after 7 days, read-out: efficacy
Experimental: Phaedon cochleariae—Spray Test
(§2) Solvent: • 78.0 parts by weight of acetone • 1.5 parts by weight of dimethylformamide
(§3) Emulsifier: alkylaryl polyglycol ether
(§4) To produce a suitable active compound preparation, 1 part by weight of active compound is dissolved using the stated parts by weight of solvent and made up with water containing an emulsifier concentration of 1000 ppm until the desired concentration is attained. To produce further test concentrations, the formulation is diluted with emulsifier-containing water.
Discs of Chinese cabbage leaves (Brassica pekinensis) are sprayed with an active compound formulation of the desired concentration and, after drying, populated with larvae of the mustard beetle (Phaedon cochleariae).
After 7 days, the efficacy in % is determined. 100% means that all the beetle larvae have been killed; 0% means that no beetle larvae have been killed.

Boophilus microplus = Boophilus microplus injection test; details: application rate 20 μg/animal, after 7 days, laying of fertile eggs
Experimental: Boophilus microplus—Injection Test
as §1
To produce a suitable active compound formulation, 10 mg of active compound are mixed with 0.5 ml of solvent and the concentrate is diluted to the desired concentration with solvent.
1 μl of the active compound solution is injected into the abdomen of 5 engorged adult female cattle ticks (Boophilus microplus). The animals are transferred into dishes and kept in a climate-controlled room.
Efficacy is assessed after 7 days by laying of fertile eggs. Eggs which are not visibly fertile are stored in a climate-controlled cabinet until the larvae hatch after about 42 days. An efficacy of 100% means that none of the ticks has laid any fertile eggs; 0% means that all the eggs are fertile.

Spodoptera frugiperda [4] = experiment: Spodoptera frugiperda spray test; details: foliar, 168 h, application rate 100 g/ha, maize leaf discs, after 7 days, read-out: efficacy
Experimental: Spodoptera frugiperda—Spray Test
as §2, §3
To produce further test concentrations, the formulation is diluted with emulsifier-containing water.
After 7 days, the efficacy in % is determined. 100% means that all the caterpillars have been killed; 0% means that no caterpillar has been killed.

Myzus persicae [5] = experiment: Myzus persicae spray test (MYZUPE), comparative; details: 120 h, 5 dat, read-out: % Efficacy
Experimental: Myzus persicae—Spray Test (MYZUPE)
as §2, §3, §4
Discs of Chinese cabbage leaves (Brassica pekinensis) infested by all stages of the green peach aphid (Myzus persicae) are sprayed with an active compound preparation of the desired concentration.
(§5) After the desired period of time, the efficacy in % is determined. 100% means that all the aphids have been killed; 0% means that no aphids have been killed.

Spodoptera frugiperda [6] = experiment: Spodoptera frugiperda test on maize plants (SPODFR S); details: 6 dai, read-out: % Efficacy
Experimental: Spodoptera frugiperda Test (SPODFR S)
(§6) Solvent: 14 parts by weight of dimethylformamide
(§7) Emulsifier: 2 parts by weight of alkylaryl polyglycol ether
(§8) To produce a suitable active compound formulation, 1 part by weight of active compound is dissolved with the stated parts by weight of solvent and emulsifier and made up to the desired concentration with water. To produce further test concentrations, water is used for dilution. In the event that addition of ammonium salts or/and penetrants (rapeseed oil methyl ester) is required, these are each pipetted in at a concentration of 1000 ppm after the finished formulation solution has been diluted.
Maize plants (Zea mays) are sprayed with an active compound formulation of the desired concentration and, in each case after 5, 12 and 19 days, populated with 5 caterpillars (L2) of the fall armyworm (Spodoptera frugiperda).
(§9) The kill is determined 6 days after the infection. 100% means that all the caterpillars have been killed and 0% means that none of the caterpillars have been killed.

Plutella xylostella = Plutella xylostella test (PLUTMA S); details: 456 h, infection 19 dat, 6 dai, read-out: % Efficacy
Experimental: Plutella xylostella Test (PLUTMA S)
as §6, §7, §8
Cabbage plants (Brassica oleracea var. sabauda) are sprayed with an active compound formulation of the desired concentration and, after 19 days, populated with 10 caterpillars (L2 larvae) of the diamond back moth (Plutella xylostella).
as §9

Aphis gossypii = Aphis gossypii spray test (APHIGO S); details: 144 h, 6 dat, read-out: % Efficacy
Experimental: Aphis gossypii—Spray Test (APHIGO S)
as §6, §3
as §4, with “water. If the addition of ammonium salts or/and penetrants is required, these are each added in a concentration of 1000 ppm to the formulation solution.” for “water.”
Cotton plants (Gossypium hirsutum) heavily infested by the cotton aphid (Aphis gossypii) are sprayed with an active compound formulation of the desired concentration.
After the desired time, the kill in % is determined. 100% means that all the aphids have been killed; 0% means that no aphids have been killed.

Myzus persicae [7] = experiment: Myzus persicae drench test (MYZUPE D); details: soil, 240 h, 10 dat, read-out: % Efficacy
Experimental: Myzus persicae—Drench Test (MYZUPE D)
Solvent: 7 parts by weight of dimethylformamide
Emulsifier: 2 part by weight of alkylaryl polyglycol ether
To produce a suitable active compound preparation, 1 part by weight of active compound is mixed with the specified amounts of solvent and emulsifier, and the concentrate is diluted with water to the desired concentration, it being necessary to include the volume of soil which is drenched in the calculation. It should be ensured that a concentration of 40 ppm of emulsifier in the soil is not exceeded. To produce further test concentrations, water is used for dilution.
Savoy cabbage (Brassica oleracea) in pots with soil and infested by all stages of the green peach aphid (Myzus persicae) is watered with an active compound preparation of the desired concentration.
as §5

Spodoptera frugiperda [8] = experiment: Spodoptera frugiperda spray test (SPODFR), comparative; details: 168 h, 0.8 g of ai/ha, 7 dat, read-out: % Efficacy
Experimental: Spodoptera frugiperda—Spray Test (SPODFR)
as §2, §3, §4
Leaf discs of maize (Zea mays) are sprayed with an active compound formulation of the desired concentration and, after drying, populated with caterpillars of the armyworm (Spodoptera frugiperda).
After the desired period of time, the efficacy in % is determined. 100% means that all the caterpillars have been killed; 0% means that no caterpillar has been killed.

Myzus persicae [9] = experiment: Myzus persicae spray test on bell pepper plants (MYZUPE S); details: 144 h, 6 dat, read-out: % Efficacy
Experimental: Myzus persicae—Spray Test (MYZUPE S)
as §6, §3
as §4, with “water. If the addition of ammonium salts or/and penetrants is required, these are each added in a concentration of 1000 ppm to the formulation solution.” for “water.”
Bell pepper plants (Capsicum annuum) severely infested with the green peach aphid (Myzus persicae) are treated by spraying with the active compound formulation in the desired concentration.
After the desired time, the kill in % is determined. 100% means that all the animals have been killed; 0% means that no animals have been killed.

Phaedon cochleariae [10] = experiment: Phaedon cochleariae test on cabbage plants (PHAECO S); details: 6 dai, read-out: % Efficacy
Experimental: Phaedon cochleariae Test (PHAECO S)
as §6, §7, §8
Cabbage plants (Brassica oleracea var. sabauda) are sprayed with an active compound formulation of the desired concentration and populated with 10 L2 larvae of the mustard beetle (Phaedon cochleariae).
After the desired time, the kill in % is determined. 100% means that all the larvae have been killed and 0% means that none of the larvae have been killed.

Heliothis armigera = Heliothis armigera test (HELIAR S); details: Helicoverpa armigera, 6 dai, read-out: % Efficacy
Experimental: Heliothis armigera Test (HELIAR S)
as §6, §7, §8
Cotton plants (Gossypium hirsutum) are sprayed with an active compound formulation of the desired concentration and, in each case after 12 and 19 days, populated with 5 caterpillars (L2) of the cotton bollworm (Heliothis armigera).
as §9

CCS(=O)(=O)c1c(-c2nc3cc(C(F)(F)F)cnc3n2C)ncc2cc(Cl)ccc12 [Example I-010]
pest or weed control at 4 ppm (Myzus persicae [1]): 100%
efficacy (kill in %) (Lucilia cuprina): 100%
pest or weed control at 100 g/ha (Myzus persicae [2]): 100%
pest or weed control at 100 ppm (Ctenocephalides felis): 100%
pest or weed control at 100 g/ha (Phaedon cochleariae [3]): 100%
efficacy (Boophilus microplus): 80%
pest or weed control at 100 g/ha (Spodoptera frugiperda [4]): 100%

CCS(=O)(=O)c1c(-c2nc3cc(C(F)(F)F)cnc3n2C)ncc2cc(C(F)(F)F)ccc12 [Example I-51, reference compound]
Emax at 4 g/ha (Myzus persicae [5]; 4 g of ai/ha): 0%
Emax at 20 g/ha (Myzus persicae [5]; 20 g of ai/ha): 0%
Emax at 0.16 ppm (Spodoptera frugiperda [6]; 120 h, infection 5 dat): 20%
Emax at 0.16 ppm (Spodoptera frugiperda [6]; 288 h, infection 12 dat): 10%
Emax at 0.8 ppm (Spodoptera frugiperda [6]; 288 h, infection 12 dat): 80%
Emax at 0.16 ppm (Spodoptera frugiperda [6]; 456 h, infection 19 dat): 30%
Emax at 0.8 ppm (Spodoptera frugiperda [6]; 456 h, infection 19 dat): 60%
Emax at 0.16 ppm (Plutella xylostella): 50%
Emax at 4 ppm (Aphis gossypii): 20%
Emax at 4 ppm (Myzus persicae [7]): 0%
Emax at 0.8 g/ha (Spodoptera frugiperda [8]): 67%
Emax at 0.8 ppm (Myzus persicae [9]; 0.8 ppm): 0%
Emax at 4 ppm (Myzus persicae [9]; 4 ppm): 70%
Emax at 0.16 ppm (Phaedon cochleariae [10]; 120 h, infection 5 dat): 10%
Emax at 0.16 ppm (Phaedon cochleariae [10]; 288 h, infection 12 dat): 0%
Emax at 0.8 ppm (Phaedon cochleariae [10]; 288 h, 0.8 ppm, infection 12 dat): 40%
Emax at 0.16 ppm (Heliothis armigera; 288 h, infection 12 dat): 40%
Emax at 0.16 ppm (Heliothis armigera; 456 h, infection 19 dat): 20%

— patent US20230060425A1, “FUSED BICYCLIC HETEROCYCLE DERIVATIVES AS PESTICIDES” (Bayer Aktiengesellschaft, priority 2019, published 2023)
